Laboratory results from a melting point compilation (Tetko et al.; mined from patent text by program, amines drawn as free bases though some values may be those of a salt).
Residues, ends and D or L forms follow the SMILES beside them. *: point of attachment. Cbz = O=C(OCc1ccccc1)*

SMILES | melting point [°C]
CCOC(=O)c1ccn2c(C(=O)c3cccc(O)c3)c(-c3ccccc3)cc2c1 | 193 to 195
N#Cc1cc(N)ccc1NC(=O)c1ccc(N)cc1 | 242 to 244
O=C1NC(=O)c2ccc(I)cc2/C1=C/Nc1ccc(CN2CCCCC2)cc1 | 202 to 203
O=C(O)C(=O)c1ccc(OCCOc2ccnc3ccccc23)cc1 | 271
Brc1cnc(SCc2cccs2)nc1 | 87
COc1cc2cc(C(N)=O)cnc2cc1F | 231
CCOC(=O)c1csc(NCc2ccccc2)n1 | 132 to 136
COc1cc(C)nc2c(O)cccc12 | 110 to 112
O=C1OC(c2ccccc2)(c2ccccc2)C2CN(C3CCN(Cc4ccccc4)CC3)CCN12 (stereo not given) | 153 to 155
CCOC(=O)c1c(N2CCN(C)CC2)c2cnc(-c3ccccc3)nc2n(CC)c1=O | 180 to 185
CCNC(=O)C1CCCN1C(=O)C(C)NC(=O)C(C)NC(=O)OCc1ccccc1 (stereo not drawn) (Cbz-Ala-Ala-Pro-NHEt; configuration not given here) | 139 to 140
C[C@H]1C(=O)C[C@@H]2C[C@H]1OO[C@]2(C)/C=C\c1ccc(C(F)(F)F)cc1Cl | 160
CN(C)S(=O)(=O)c1ccc2c3c(cccc13)C(NCCCn1ccnc1)=N2 | 199 to 201
C/C(=C/C#N)c1ccc2c(c1)C(C)(C)OC(=O)N2 | 213 to 215
CCOc1ccc2nc(CN3CCN(c4ccc(Cl)cc4Cl)CC3)cn2c1 | 171 to 172
CC(C)(C)c1cc(SCc2ccc(C(=O)O)cc2)cc(C(C)(C)C)c1O | 171
N#Cc1c(Cl)cnc2cc(I)sc12 | 209 to 211
Oc1ccc(-c2cc3ncccc3cn2)cc1 | 219 to 221
CC(C)(CCc1nnn[nH]1)c1ccc(C(=O)Nc2cn3cc(C(F)(F)F)ccc3n2)cc1 | 250 to 251
CC1(C)CC(=O)CC(=O)C1c1ccccc1 (stereo not given) | 133 to 135
N#Cc1ccnc(Oc2ccc(CCNc3ncnc4scnc34)cc2)c1 | 145 to 148
CC(=O)NC[C@H]1CN(c2ccc(N3CCC(=C(C)C#N)CC3)c(F)c2)C(=O)O1 | 181 to 182
CC(C)(C)c1cc(CCC(=O)NCCNc2c(Cl)nc(Cl)c(Cl)c2C#N)cc(C(C)(C)C)c1O | 150 to 160

Results, then the molecule that gave them:

melting point [°C] | SMILES
70 | CCCCCCCCCCCCOC(=O)c1ccc(O)c([N+](=O)[O-])c1
232 to 234 | CN(C)Cc1nnc2n1-c1ccc(Cl)cc1N(c1ccccc1)C(=O)C2
97 to 99 | CC(C)(C)OC(=O)C=Cc1cc(Br)cc(Cc2cccnc2)c1
130 to 131 | CC(C)c1nn(-c2ccc(C(F)(F)F)cn2)cc1CCCOc1cc(CCC(=O)O)n(C(C)C)n1
117 to 121 | NCCc1ccc(N2C(=O)N(c3ccc(Cl)cc3Cl)Cc3cnc(Nc4ccccc4)nc32)cc1
128 to 130 | COc1ccc(C)c(N2CCN(C(=O)Nc3cc4ccccc4nc3OC)CC2)c1
139 to 140 | CNN1c2cc(Cl)cc(Cl)c2[C@@H](C(=O)Nc2ccccc2)C[C@@H]1C(=O)O (relative stereo)
69 to 70 | COC(=O)c1cccnc1SCc1cccc(OC)c1
207 to 208 | CCCNS(=O)(=O)c1ccc(Nc2nc(OCC3CCCCC3)c3nc[nH]c3n2)cc1
163 to 164 | COC(=O)C=Cc1cn(Cc2ccc(C(=O)OC(C)(C)C)cc2OC)c2cc(C(=O)NCC3CCCC3)ccc12
203 to 206 | CCOC(=O)c1cc(-n2c(=O)c3c(n(C)c2=O)CSC3)ccc1Cl
111 | COc1cc(OC)c([N+](=O)[O-])c(OC)c1N
